Read-outs that look alike come from different tables or passages of the source.
How the values were obtained:
SREBP-2 = SREBP-2 (Homo sapiens (Human), UniProt Q12772); assay: In vitro assay SREBP-2: PathHunter U2OS SREBP-2 Nuclear Translocation Cell Line, U18666A-stimulated; assay type: cell-based
LXRβ = LXRβ (Homo sapiens (Human), UniProt P55055); assay: In vitro assay LXRβ: PathHunter NHR CHO cells, LXRβ / Steroid Receptor Co-activator Peptide enzyme fragment complementation; assay type: cell-based; settings: PathHunter NHR CHO cells, full-length human LXRβ and SRCP, chemiluminescent signal; read-out: LXRβ PPI
In short: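 Co-activator recruitment measured by chemiluminescence after signal generation. The CHO line carries full-length human LXRβ tagged with ProLink and an SRCP–enzyme acceptor fusion in the nucleus; cells sat overnight at 37° C before testing, in charcoal-dextran filtered serum medium with 1% final vehicle.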

[1] = PathHunter U2OS SREBP-2 nuclear translocation cells, U18666A 10 μM, overnight (16 hours)

Sequence of LXRβ (P55055 whole entry, the tested form may be a part): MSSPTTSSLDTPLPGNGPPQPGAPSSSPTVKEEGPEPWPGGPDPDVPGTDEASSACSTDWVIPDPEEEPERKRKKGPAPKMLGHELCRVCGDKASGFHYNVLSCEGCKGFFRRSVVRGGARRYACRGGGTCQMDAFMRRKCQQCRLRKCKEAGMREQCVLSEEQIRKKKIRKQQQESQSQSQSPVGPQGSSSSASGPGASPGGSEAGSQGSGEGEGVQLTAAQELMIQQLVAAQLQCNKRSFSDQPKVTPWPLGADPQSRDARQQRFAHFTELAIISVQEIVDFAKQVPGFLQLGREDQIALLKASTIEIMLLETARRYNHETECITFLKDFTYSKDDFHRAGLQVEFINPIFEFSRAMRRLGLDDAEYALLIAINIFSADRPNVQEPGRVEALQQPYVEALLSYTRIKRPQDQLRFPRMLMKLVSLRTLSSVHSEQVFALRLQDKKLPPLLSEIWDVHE

SMILES | IC50 (SREBP-2; [1]) [µM] | EC50 (LXRβ) [µM] | IC50 (SREBP-2) [µM]
C[C@H](CCC(=O)N1CCC2(CCOC2)CC1)[C@H]1CC[C@H]2[C@@H]3CC=C4C[C@@H](O)CC[C@]4(C)[C@H]3CC[C@]12C [Example 89, (R)-4-((3S,8S,9S,10R,13R,14S,17R)-3-hydroxy-10,13-dimethyl-2,3,4,7,8,9,10,11,12,13,14,15,16,17-tetradecahydro-1H-cyclopenta[a]phenanthren-17-yl)-1-(2-oxa-δ-azaspiro[4.5]decan-δ-yl)pentan-1-one] | < 0.25 | > 10 | 
CC(C)ON(C)C(=O)CC[C@@H](C)[C@H]1CC[C@H]2[C@@H]3CC=C4C[C@@H](O)CC[C@]4(C)[C@H]3CC[C@]12C [Example 14, (R)-4-((3S,8S,9S,10R,13R,14S,17R)-3-hydroxy-10,13-dimethyl-2,3,4,7,8,9,10,11,12,13,14,15,16,17-tetradecahydro-1H-cyclopenta[a]phenanthren-17-yl)-N-isopropoxy-N-methylpentanamide] | 0.25 to 1 | 0.25 to 1 | 
COc1ccc2ccnc(N3CCN(C(=O)CC[C@@H](C)[C@H]4CC[C@H]5[C@@H]6CC=C7C[C@@H](O)CC[C@]7(C)[C@H]6CC[C@]45C)CC3)c2c1 [Example 627, (R)-4-((3S,8S,9S,10R,13R,14S,17R)-3-hydroxy-10,13-dimethyl-2,3,4,7,8,9,10,11,12,13,14,15,16,17-tetradecahydro-1H-cyclopenta[a]phenanthren-17-yl)-1-(4-(7-methoxyisoquinolin-1-yl)piperazin-1-yl)pentan-1-one] | < 0.25 | > 10 | 
CON(C)C(=O)C(C)C[C@@H](C)[C@H]1CC[C@H]2[C@@H]3CC=C4C[C@@H](O)CC[C@]4(C)[C@H]3CC[C@]12C (stereo partly drawn) [Example 142, (4R)-4-((3S,8S,9S,10R,13R,14S,17R)-3-hydroxy-10,13-dimethyl-2,3,4,7,8,9,10,11,12,13,14,15,16,17-tetradecahydro-1H-cyclopenta[a]phenanthren-17-yl) -N-methoxy-N,2-dimethylpentanamide] |  | 1 to 10 | 1 to 10
CON(CCN)C(=O)CC[C@@H](C)[C@H]1CC[C@H]2[C@@H]3CC=C4C[C@@H](O)CC[C@]4(C)[C@H]3CC[C@]12C [Example 64, (R)—N-(2-aminoethyl)-4-((3S,8S,9S,10R,13R,14S,17R)-3-hydroxy-10,13-dimethyl-2,3,4,7,8,9,10,11,12,13,14,15,16,17-tetradecahydro-1H-cyclopenta[a]phenanthren-17-yl)-N-methoxypentanamide] | 0.25 to 1 | < 0.25 | 
C[C@H](CCC(=O)N1CCC(NS(C)(=O)=O)CC1)[C@H]1CC[C@H]2[C@@H]3CC=C4C[C@@H](O)CC[C@]4(C)[C@H]3CC[C@]12C [Example 414, N-(1-((R)-4-((3S,8S,9S,10R,13R,14S,17R)-3-hydroxy-10,13-dimethyl-2,3,4,7,8,9,10,11,12,13,14,15,16,17-tetradecahydro-1H-cyclopenta[a]phenanthren-17-yl)pentanoyl)piperidin-4-yl)methanesulfonamide] | 0.25 to 1 | > 10 | 
C[C@H](CCC(=O)N1CCC(O)(CC(F)F)CC1)[C@H]1CC[C@H]2[C@@H]3CC=C4C[C@@H](O)CC[C@]4(C)[C@H]3CC[C@]12C [Example 151, (4R)-4-[(1R,3aS,3bS,7S,9aR,9bS,11aR)-7-hydroxy-9a,11a-dimethyl-1H,2H,3H,3aH,3bH,4H,6H,7H,8H,9H,9aH,9bH,10H,11H,11aH-cyclopenta[a]phenanthren-1-yl]-1-[4-(2,2-difluoroethyl)-4-hydroxypiperidin-1-yl]pentan-1-one] | < 0.25 | < 0.25 | 
C[C@H](CCC(=O)N1CCN(C(=O)N(C)C)C[C@@H]1C)[C@H]1CC[C@H]2[C@@H]3CC=C4C[C@@H](O)CC[C@]4(C)[C@H]3CC[C@]12C [Example 582, (S)-4-((R)-4-((3S,8S,9S,10R,13R,14S,17R)-3-hydroxy-10,13-dimethyl-2,3,4,7,8,9,10,11,12,13,14,15,16,17-tetradecahydro-1H-cyclopenta[a]phenanthren-17-yl)pentanoyl)-N,N,3-trimethylpiperazine-1-carboxamide] | < 0.25 | > 10 | 
COC(=O)N1CCN(C(=O)CC[C@@H](C)[C@H]2CC[C@H]3[C@@H]4CC=C5C[C@@H](O)CC[C@]5(C)[C@H]4CC[C@]23C)CC1 [Example 360, methyl 4-((R)-4-((3S,8S,9S,10R,13R,14S,17R)-3-hydroxy-10,13-dimethyl-2,3,4,7,8,9,10,11,12,13,14,15,16,17-tetradecahydro-1H-cyclopenta[a]phenanthren-17-yl)pentanoyl)piperazine-1-carboxylate] | < 0.25 | > 10 | 
COC(=O)N1CCN(C(=O)CC[C@@H](C)[C@H]2CC[C@H]3[C@@H]4CC=C5C[C@@H](O)CC[C@]5(C)[C@H]4CC[C@]23C)[C@@H](C)C1 [Example 579, Methyl(S)-4-((R)-4-((3S,8S,9S,10R,13R,14S,17R)-3-hydroxy-10,13-dimethyl-2,3,4,7,8,9,10,11,12,13,14,15,16,17-tetradecahydro-1H-cyclopenta[a]phenanthren-17-yl)pentanoyl)-3-methylpiperazine-1-carboxylate] | < 0.25 | > 10 | 
C[C@H](CCC(=O)N1CCN(c2ccncn2)[C@@H](C)C1)[C@H]1CC[C@H]2[C@@H]3CC=C4C[C@@H](O)CC[C@]4(C)[C@H]3CC[C@]12C [Example 575, (4R)-4-[(1R,3aS,3bS,7S,9aR,9bS,11aR)-7-hydroxy-9a,11a-dimethyl-1H,2H,3H,3aH,3bH,4H,6H,7H,8H,9H,9aH,9bH,10H,11H,11aH-cyclopenta[a]phenanthren-1-yl]-1-[(3S)-3-methyl-4-(pyrimidin-4-yl)piperazin-1-yl]pentan-1-one] | < 0.25 | > 10 | 
CC(=O)N(C)[C@H]1CCN(C(=O)CC[C@@H](C)[C@H]2CC[C@H]3[C@@H]4CC=C5C[C@@H](O)CC[C@]5(C)[C@H]4CC[C@]23C)C1 [Example 321, N—((S)-1-((R)-4-((3S,8S,9S,10R,13R,14S,17R)-3-hydroxy-10,13-dimethyl-2,3,4,7,8,9,10,11,12,13,14,15,16,17-tetradecahydro-1H-cyclopenta[a]phenanthren-17-yl)pentanoyl)pyrrolidin-3-yl)-N-methylacetamide] | < 0.25 | > 10 | 
CC(O)c1cccnc1CC[C@@H](C)[C@H]1CC[C@H]2[C@@H]3CC=C4C[C@@H](O)CC[C@]4(C)[C@H]3CC[C@]12C (stereo partly drawn) [Example 455, (3S,8S,9S,10R,13R,14S,17R)-17-((2R)-4-(3-(1-hydroxyethyl)pyridin-2-yl)butan-2-yl)-10,13-dimethyl-2,3,4,7,8,9,10,11,12,13,14,15,16,17-tetradecahydro-1H-cyclopenta[a]phenanthren-3-ol] | < 0.25 | < 0.25 | 
C[C@H](CCC(=O)N1CCC(C)(C(N)=O)CC1)[C@H]1CC[C@H]2[C@@H]3CC=C4C[C@@H](O)CC[C@]4(C)[C@H]3CC[C@]12C [Example 85, 1-((R)-4-((3S,8S,9S,10R,13R,14S,17R)-3-hydroxy-10,13-dimethyl-2,3,4,7,8,9,10,11,12,13,14,15,16,17-tetradecahydro-1H-cyclopenta[a]phenanthren-17-yl)pentanoyl)-4-methylpiperidine-4-carboxamide] | < 0.25 | > 10 | 
C[C@H](CCC(=O)N1CCN(C(=O)N(C)CC2CC2)CC1)[C@H]1CC[C@H]2[C@@H]3CC=C4C[C@@H](O)CC[C@]4(C)[C@H]3CC[C@]12C [Example 210, N-(cyclopropylmethyl)-4-((R)-4-((3S,8S,9S,10R,13R,14S,17R)-3-hydroxy-10,13-dimethyl-2,3,4,7,8,9,10,11,12,13,14,15,16,17-tetradecahydro-1H-cyclopenta[a]phenanthren-17-yl)pentanoyl)-N-methylpiperazine-1-carboxamide] | < 0.25 | > 10 | 
C[C@H](CCC(=O)N1C[C@@H]2C[C@]2(c2ccccc2)C1)[C@H]1CC[C@H]2[C@@H]3CC=C4C[C@@H](O)CC[C@]4(C)[C@H]3CC[C@]12C [Example 78, (4R)-4-((3S,8S,9S,10R,13R,14S,17R)-3-hydroxy-10,13-dimethyl-2,3,4,7,8,9,10,11,12,13,14,15,16,17-tetradecahydro-1H-cyclopenta[a]phenanthren-17-yl)-1-(1-phenyl-3-azabicyclo[3.1.0]hexan-3-yl)pentan-1-one] | < 0.25 | 1 to 10 | 
C[C@@H]1CCN(C(=O)N2CCN(C(=O)CC[C@@H](C)[C@H]3CC[C@H]4[C@@H]5CC=C6C[C@@H](O)CC[C@]6(C)[C@H]5CC[C@]34C)CC2)C1 [Example 667, (R)-4-((3S,8S,9S,10R,13R,14S,17R)-3-hydroxy-10,13-dimethyl-2,3,4,7,8,9,10,11,12,13,14,15,16,17-tetradecahydro-1H-cyclopenta[a]phenanthren-17-yl)-1-(4-((R)-3-methylpyrrolidine-1-carbonyl)piperazin-1-yl)pentan-1-one] | < 0.25 | > 10 | 
C[C@H](CCC(=O)N1CCN(C(=O)N2CC[C@@H]2C)CC1)[C@H]1CC[C@H]2[C@@H]3CC=C4C[C@@H](O)CC[C@]4(C)[C@H]3CC[C@]12C [Example 665, (R)-4-((3S,8S,9S,10R,13R,14S,17R)-3-hydroxy-10,13-dimethyl-2,3,4,7,8,9,10,11,12,13,14,15,16,17-tetradecahydro-1H-cyclopenta[a]phenanthren-17-yl)-1-(4-((S)-2-methylazetidine-1-carbonyl)piperazin-1-yl)pentan-1-one] | < 0.25 | > 10 | 

From patent US20230340011A1 (Asteroid Therapeutics, priority 2022, published 2023)
